As a reminder, the IC50 is the concentration that inhibits the measured activity by half.

Common to all, as to type: biochemical
In one experiment the target is T1, TACE (Homo sapiens, UniProt P78536).
T1 construct: purchased Immunex
The experiment in a line: Procedure for Measuring TACE Inhibition. As to the method:
Procedure for Measuring TACE Inhibition
The plates were incubated for 10 minutes at room temperature. The reaction was initiated by addition of a fluorescent peptidyl substrate (final concentration 100 μM) to each well with shaking on a shaker for 5 sec.
The reaction was read (excitation 340 nm, emission 420 nm) for 10 min. and the increase in fluorescence over time was plotted as a linear line. The slope of the line was calculated and this represents the reaction rate. […] The mean (x±sem) of the control rate was calculated and compared for statistical significance (p<0.05) with drug-treated rates using Dunnett's multiple comparison test.

For another experiment, the target named is MMP-9 (Homo sapiens, UniProt P14780). Briefly: In Vitro Gelatinase Assay (MMP-9). As to conditions: human neutrophil gelatinase B. On the procedure: The enzyme activity is measured by the rate of the color increase. The thiopeptide substrate was made up fresh as a 20 mM stock in 100% DMSO and the DTNB was dissolved in 100% DMSO as a 100 mM stock and stored in the dark at room temperature. The substrate and the DTNB were diluted together to 1 mM with substrate buffer (50 mM HEPES, pH 7.5, 5 mM CaCl2) before use. […] The assay buffer, enzyme. […] The increase in OD405 was plotted and the slope of the line was calculated. The slope represents the reaction rate.
Sequence of MMP-9 (P14780 94-707): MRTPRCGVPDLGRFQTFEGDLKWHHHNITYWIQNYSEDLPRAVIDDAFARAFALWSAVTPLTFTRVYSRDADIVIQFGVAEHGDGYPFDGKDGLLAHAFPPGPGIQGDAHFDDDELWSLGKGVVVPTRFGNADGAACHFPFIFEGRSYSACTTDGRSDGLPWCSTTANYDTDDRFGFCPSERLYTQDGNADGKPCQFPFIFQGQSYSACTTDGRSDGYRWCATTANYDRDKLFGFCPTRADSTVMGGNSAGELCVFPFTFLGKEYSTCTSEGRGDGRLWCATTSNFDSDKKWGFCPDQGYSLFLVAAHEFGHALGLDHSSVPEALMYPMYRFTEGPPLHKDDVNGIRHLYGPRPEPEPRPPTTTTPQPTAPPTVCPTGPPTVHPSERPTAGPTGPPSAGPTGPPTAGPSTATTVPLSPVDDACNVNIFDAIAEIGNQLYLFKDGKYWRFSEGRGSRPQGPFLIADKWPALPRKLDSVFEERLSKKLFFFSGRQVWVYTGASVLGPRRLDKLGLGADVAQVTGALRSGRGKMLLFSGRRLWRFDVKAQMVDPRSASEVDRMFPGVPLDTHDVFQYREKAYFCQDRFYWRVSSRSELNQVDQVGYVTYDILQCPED

A further experiment has as its target T2, MMP-1 (Homo sapiens, UniProt P03956).
T2 construct: human recombinant fibroblast collagenase (truncated, mw=18,828)
T2 sequence (P03956 100-269 limits assumed): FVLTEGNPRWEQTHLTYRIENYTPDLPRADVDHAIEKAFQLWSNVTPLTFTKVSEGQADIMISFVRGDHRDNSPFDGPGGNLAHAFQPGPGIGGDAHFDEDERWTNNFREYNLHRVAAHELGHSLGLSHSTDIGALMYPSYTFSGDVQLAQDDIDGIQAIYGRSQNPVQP
Briefly: In Vitro Collagenase Assay (MMP-1). As to conditions: human recombinant fibroblast collagenase. The text has this: In Vitro Collagenase Assay
This assay was based on the cleavage of a peptide substrate ((Dnp-Pro-Cha-Gly-Cys(Me)-His-Ala-Lys(NMa)-NH2), available from Peptide International, Inc.) by collagenase releasing the fluorescent NMa group which was quantitated on the fluorometer as disclosed in Bickett et al., "A High Throughput Fluorogenic Substrate for Interstitial Collagenase (MMP-1) and Gelatinase (MMP-9)", Anal. Biochem., 212:58-64, (1993). Dnp quenches the NMa fluorescence in the intact substrate.
The assay was run in HCBC assay buffer (50 mM HEPES, pH 7.0, 5 mM Ca^+2, 0.02% Brij, 0.5% Cysteine), with human recombinant fibroblast collagenase (truncated, mw=18,828. from Wyeth-Ayerst Research, Radnor, Pa.). The substrate was dissolved in methanol and stored frozen in 1 mM aliquots. Collagenase was stored frozen in buffer in 25 μM aliquots. In conducting the assay, the substrate was dissolved in HCBC buffer to a final concentration of 10 μM and collagenase to a final concentration of 5 nM. The compounds being examined were dissolved in methanol, DMSO, or HCBC. The methanol and DMSO were diluted in HCBC to <1.0%. The compounds were added to a 96 well plate containing enzyme and the reaction was started by the addition of substrate.
The reaction was read (excitation 340 nm, emission 444 nm) for 10 min. and the increase in fluorescence over time was plotted as a linear line. The slope of the line was calculated representing the reaction rate. The linearity of the reaction rate was confirmed (r^2 >0.85). The mean (x±sem) of the control rate was calculated and compared for statistical significance (p<0.05) with drug-treated rates using Dunnett's multiple comparison test.

A further experiment has as its target MMP-13 (Homo sapiens, UniProt P45452). Briefly: MMP-13 inhibition (Table 1). As to conditions: read-out: IC50 (nM) MMP-13.

T1 sequence (P78536 215-824): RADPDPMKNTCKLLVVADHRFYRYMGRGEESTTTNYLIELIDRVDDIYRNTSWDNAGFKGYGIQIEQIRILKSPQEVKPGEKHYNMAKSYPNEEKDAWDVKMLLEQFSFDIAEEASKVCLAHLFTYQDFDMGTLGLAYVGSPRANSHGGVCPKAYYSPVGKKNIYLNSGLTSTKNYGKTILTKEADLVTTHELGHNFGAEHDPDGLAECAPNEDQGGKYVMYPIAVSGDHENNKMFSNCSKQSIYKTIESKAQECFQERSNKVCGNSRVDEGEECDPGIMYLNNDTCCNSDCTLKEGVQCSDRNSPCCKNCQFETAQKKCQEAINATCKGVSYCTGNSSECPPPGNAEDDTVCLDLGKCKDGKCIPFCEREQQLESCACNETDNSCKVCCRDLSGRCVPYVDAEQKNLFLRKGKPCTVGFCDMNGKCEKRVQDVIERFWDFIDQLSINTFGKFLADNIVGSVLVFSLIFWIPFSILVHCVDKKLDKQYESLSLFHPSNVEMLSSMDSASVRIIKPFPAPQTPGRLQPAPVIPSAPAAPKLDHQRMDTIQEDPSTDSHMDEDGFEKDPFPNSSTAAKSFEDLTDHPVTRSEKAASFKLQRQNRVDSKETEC

Turning to `COc1ccc(S(=O)(=O)N2Cc3ccccc3N(C(=O)c3ccco3)CC2C(=O)NO)cc1` (stereo not shown) [Example 40, 1-(2-Furanylcarbonyl)-4-(4-methoxybenzenesulfonyl)-2,3,4,5-tetrahydro-1H-[1,4]benzodiazepine-3-carboxylic acid, Hydroxyamide], the IC50 against TACE amounted to 28.5 nM; at MMP-9 it was 1.4 nM; on MMP-1, 16.6 nM; at MMP-13, 1.2 nM.
In the case of `COc1ccc(S(=O)(=O)N2Cc3ccccc3N(C(=O)c3ccccc3-c3ccccc3)CC2C(=O)NO)cc1` (stereo not shown) [Example 14, 1-([1,1'-Biphenyl]-2-carbonyl)-4-(4-methoxybenzenesulfonyl)-2,3,4,5-tetrahydro-1H-[1,4]benzodiazepine-3-carboxylic acid, Hydroxyamide], the IC50 is 12.6 nM on MMP-9, 542 nM on MMP-1 and 3.7 nM on MMP-13.
As for `COc1ccc(S(=O)(=O)N2Cc3ccccc3N(C(=O)CN3CCN(C)CC3)CC2C(=O)NO)cc1` (stereo not shown) [Example 72, 4-(4-Methoxybenzenesulfonyl)-1-[2-(4-methylpiperazin-1-yl)acetyl]-2,3,4,5-tetrahydro-1H-[1,4]benzodiazepine-3-carboxylic acid, Hydroxyamide], the IC50 on TACE turned out to be 808 nM; on MMP-9, 187 nM; on MMP-1, 4980 nM; at MMP-13, 317 nM.
For `COc1ccc(S(=O)(=O)N2Cc3ccccc3N(C(=O)COc3ccccc3)CC2C(=O)NO)cc1` (stereo not shown) [Example 58, 4-(4-Methoxybenzenesulfonyl)-1-(phenoxyacetyl)-2,3,4,5-tetrahydro-1H-[1,4]benzodiazepine-3-carboxylic acid, Hydroxamide], in that order: 154 nM, 4.4 nM, 65.5 nM and 2.9 nM.
For `COc1ccc(S(=O)(=O)N2Cc3ccc(Cl)cc3N(C(=O)c3ccccc3N3CCOCC3)CC2C(=O)NO)cc1` (stereo not shown) [Example 64, 4-(4-Methoxybenzenesulfonyl)-1-[2-(4-morpholino)phenylcarbonyl}-8-chloro-2,3,4,5-tetrahydro-1H-[1,4]benzodiazepine-3-carboxylic acid, Hydroxyamide], in that order: 384 nM, 6.1 nM, 157 nM and 3.4 nM.
For `CCOc1ccc(C(=O)N2CC(C(=O)NO)N(S(=O)(=O)c3ccc(OC)cc3)Cc3ccccc32)cc1` (stereo not shown) [Example 65, 1-(4-Ethoxybenzoyl)-4-(4-methoxybenzenesulfonyl)-2,3,4,5-tetrahydro-1H-[1,4]benzodiazepine-3-carboxylic acid, Hydroxyamide], in that order: 157 nM, 1.5 nM, 23.5 nM and 1.5 nM.
As for `COCCN1CC(C(=O)NO)N(S(=O)(=O)c2ccc(OC)cc2)Cc2ccccc21` (stereo not shown) [Example 62, 4-(4-Methoxybenzenesulfonyl)-1-(2-methoxyetbyl)-2,3,4,5-tetrahydro-1H-[1,4]benzodiazepine-3-carboxylic acid, Hydroxyamide], the IC50 was found to be 100 nM on MMP-9, 1000 nM at MMP-1 and 100 nM on MMP-13.
In the case of `COc1ccc(S(=O)(=O)N2CC(C(=O)NO)N(S(=O)(=O)c3ccc(OC)cc3)Cc3ccccc32)cc1` (stereo not shown) [Example 4, 1,4-Bis-(4-Methoxybenzenesulfonyl)-2,3,4,5-tetrahydro-1H-[1,4]benzodiazepine-3-carboxylic acid, Hydroxyamide], the IC50 against TACE was 101 ± 3 nM; against MMP-9, 12.2 nM; at MMP-1, 224 nM; at MMP-13, 4.3 nM.
The like results for `COc1ccc(S(=O)(=O)N2Cc3ccccc3N(C(=O)c3ccc(-n4ccc(C)n4)cc3Cl)CC2C(=O)NO)cc1` (stereo not shown) [Example 66, 4-(4-Methoxybenzenesulfonyl)-1-[2-chloro-4-(3-methyl-1-pyrazolyl)phenylcarbonyl}-2,3,4,5-tetrahydro-1H-[1,4]benzodiazepine-3-carboxylic acid, Hydroxyamide] were, in that order, 148 nM, 3.4 nM, 83.4 nM and 2.6 nM.
For `COc1ccc(S(=O)(=O)N2Cc3ccccc3N(C(=O)c3ccc(-c4ccccc4)cc3)CC2C(=O)NO)cc1` (stereo not shown) [Example 15, 1-(4-Biphenylcarbonyl)-4-(4-methoxybenzenesulfonyl)-2,3,4,5-tetrahydro-1H-[1,4]benzodiazepine-3-carboxylic acid, Hydroxyamide], in that order: 199 nM, 0.7 nM, 52.7 nM and 0.4 nM.
For `COc1ccc(S(=O)(=O)N2Cc3ccccc3N(C(=O)CCc3ccccc3)CC2C(=O)NO)cc1` (stereo not shown) [Example 12, 4-(4-Methoxybenzenesulfonyl)-1-(3-phenylpropionyl)-2,3,4,5-tetrahydro-1H-[1,4]benzodiazepine-3-carboxylic acid, Hydroxyamide], the IC50 on TACE turned out to be 207 nM; on MMP-9 it was 17.9 nM; at MMP-1, 523 nM.
With `COc1ccc(S(=O)(=O)N2Cc3ccccc3N(C(=O)c3ccc(Cl)cc3Cl)CC2C(=O)NO)cc1` (stereo not shown) [Example 31, 1-(2,4-Dichlorobenzoyl)-4-(4-methoxybenzenesulfonyl)-2,3,4,5-tetrahydro-1H-[1,4]benzodiazepine-3-carboxylic acid, Hydroxyamide], the IC50 against MMP-9 amounted to 3 nM; on MMP-1 it was 75.5 nM; at MMP-13 it was 2.6 nM.
As for `COc1ccc(S(=O)(=O)N2Cc3ccccc3N(C(=O)c3ccccc3)CC2C(=O)NO)cc1` (stereo not shown) [Example 5, 1-Benzoyl-4-(4-methoxybenzenesulfonyl)-2,3,4,5-tetrahydro-1H-[1,4]benzodiazepine-3-carboxylic acid, Hydroxyamide], the IC50 on TACE amounted to 95 ± 10 nM; against MMP-9, 0.56 nM; at MMP-13, 0.4 nM.
For `COc1ccc(S(=O)(=O)N2Cc3ccccc3N(C(=O)C3CCCCC3)CC2C(=O)NO)cc1` (stereo not shown) [Example 57, 1-(Cyclohexylcarbonyl)-4-(4-methoxybenzenesufonyl)-2,3,4,5-tetrahydro-1H-[1,4]benzodiazepine-3-carboxylic acid, Hydroxyamide], the figures for the IC50 against TACE, at MMP-9 and at MMP-1 were 318 nM, 12.7 nM and 465 nM, respectively.
On to `COc1ccc(S(=O)(=O)N2Cc3ccccc3N(S(=O)(=O)c3ccc(C)cc3)CC2C(=O)NO)cc1` (stereo not shown) [Example 2, 4-(4-Metboxybenzenesulfonyl)-1-(4-methylphenylsulfonyl)-2,3,4,5-tetrahydro-1H-[1,4]benzodiazepine-3-carboxylic acid, Hydroxyamide], for which the figures for the IC50 against TACE, on MMP-9 and on MMP-13 were 391 nM, 14.1 nM and 5.1 nM, respectively.
Turning to `COc1ccc(S(=O)(=O)N2Cc3ccccc3N(C(=O)c3cccs3)CC2C(=O)NO)cc1` (stereo not shown) [Example 8, 4-(4-Methoxybenzenesulfonyl)-1-(2-thienylcarbonyl)-2,3,4,5-tetrahydro-1H-[1,4]benzodiazepine-3-carboxylic acid, Hydroxyamide], the IC50 was 19.7 nM on MMP-1 and 1.1 nM at MMP-13.
`COc1ccc(S(=O)(=O)N2Cc3ccccc3N(C(=O)C3CC3)CC2C(=O)NO)cc1` (stereo not shown) [Example 55, 1-(Cyclopropylcarbonyl)-4-(4-methoxybenzenesulfonyl)-2,3,4,5-tetrahydro-1H-[1,4]benzodiazepine-3-carboxylic acid, Hydroxyamide]: the IC50 against TACE was 68.5 nM; on MMP-9, 4 nM; at MMP-1 it was 171 nM.

(Values after patent US6071903A, “2,3,4,5-tetrahydro-1H-[1,4]-benzodiazepine-3-hydroxyamic acids” (American Cyanamid Company, priority 1999, dated 2000).)
